This passage reports IC50 results from US10722514B2 (FLX Bio, Inc., priority 2017, dated 2020).

Structures can show the parent of a compound that is named as a salt. Where two headings read alike, the source gives them in different places. Some results are limits rather than exact numbers.

The target in the test is T1, recombinant full-length USP7 (Homo sapiens, UniProt Q93009).
T1 construct: A 25 μl reaction volume containing recombinant full-length USP7 (62 pM)
Kind of test: USP7-mediated ubiquitin-rhodamine cleavage assay. It is filed as biochemical. Conditions: recombinant full-length USP7 62 pM, ubiquitin-rhodamine 100 nM, 1 hour reaction at room temperature. An outline of the steps: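 IC50 values came from fluorescence measured after a 1 h room-temperature reaction of 62 pM enzyme with 100 nM ubiquitin-rhodamine, following 30 min compound preincubation; fits used four parameters.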

[1] abbreviates: 30-minute incubation, read-out: Potency (USP7 IC50).
[2] abbreviates: 30-minute incubation with compound, read-out: Potency: USP7 IC50.
[3] abbreviates: 30-minute pre-incubation, read-out: Potency (USP7 IC50).

By IC50 is commonly meant the concentration at which inhibition is half-maximal.

T1 sequence (Q93009 whole entry): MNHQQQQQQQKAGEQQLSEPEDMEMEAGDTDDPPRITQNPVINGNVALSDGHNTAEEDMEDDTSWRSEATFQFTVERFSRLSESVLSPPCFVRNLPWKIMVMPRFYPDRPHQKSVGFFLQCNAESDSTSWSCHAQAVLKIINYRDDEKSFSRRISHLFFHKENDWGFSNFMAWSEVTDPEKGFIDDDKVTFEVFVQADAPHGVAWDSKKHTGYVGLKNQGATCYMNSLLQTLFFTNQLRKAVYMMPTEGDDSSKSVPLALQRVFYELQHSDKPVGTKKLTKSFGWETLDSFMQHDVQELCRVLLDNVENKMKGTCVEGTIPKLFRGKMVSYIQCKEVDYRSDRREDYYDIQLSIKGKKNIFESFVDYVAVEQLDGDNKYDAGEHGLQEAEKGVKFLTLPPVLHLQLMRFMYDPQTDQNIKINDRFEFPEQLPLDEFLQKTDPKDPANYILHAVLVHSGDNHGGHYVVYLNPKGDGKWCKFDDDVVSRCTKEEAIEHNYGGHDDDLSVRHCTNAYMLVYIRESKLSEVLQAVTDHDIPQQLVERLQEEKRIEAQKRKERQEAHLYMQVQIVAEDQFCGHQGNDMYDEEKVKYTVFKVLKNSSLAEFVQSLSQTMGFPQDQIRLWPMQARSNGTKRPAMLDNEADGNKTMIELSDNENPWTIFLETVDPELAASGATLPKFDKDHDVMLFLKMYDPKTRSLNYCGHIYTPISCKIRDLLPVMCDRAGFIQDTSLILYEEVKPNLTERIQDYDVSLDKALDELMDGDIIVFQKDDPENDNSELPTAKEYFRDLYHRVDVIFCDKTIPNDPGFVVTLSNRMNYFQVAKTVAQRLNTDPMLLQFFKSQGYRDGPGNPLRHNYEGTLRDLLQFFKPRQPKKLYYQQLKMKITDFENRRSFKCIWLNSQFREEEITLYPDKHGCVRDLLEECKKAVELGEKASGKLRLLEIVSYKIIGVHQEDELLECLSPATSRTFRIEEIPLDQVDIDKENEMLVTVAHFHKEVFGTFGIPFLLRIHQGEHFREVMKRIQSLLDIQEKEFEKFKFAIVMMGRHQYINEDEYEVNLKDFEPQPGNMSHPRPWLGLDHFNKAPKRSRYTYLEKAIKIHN

On to `COCC1(N)CC(Oc2c(C)cc(Cl)cc2-c2ccnc3cc(Cn4c(=O)ccn(CC(F)(F)F)c4=O)sc23)C1` (centres unmarked) [Example 699, 3-[[7-[2-[3-amino-3-(methoxymethyl)cyclobutoxy]-5-chloro-3-methyl-phenyl]thieno[3,2-b]pyridin-2-yl]methyl]-1-(2,2,2-trifluoroethyl)pyrimidine-2,4-dione], for which the half-maximal inhibitory concentration (IC50) under setting [1] is less than 1 µM. In the case of `Cc1cc(Cl)cc(-c2ccnc3c(F)c(CN4C(=O)CCC4=O)sc23)c1OC1CCNCC1` [Example 242, 1-((7-(5-Chloro-3-methyl-2-(piperidin-4-yloxy)phenyl)-3-fluorothieno[3,2-b]pyridin-2-yl)methyl)pyrrolidine-2,5-dione], the 50% inhibitory concentration (IC50) under setting [2] is less than 1 µM.

Turning to `Cc1cc(Cl)cc(-c2ccnc3cc([C@H](C)N4C(=O)C5C(C4=O)C5(C)C)sc23)c1OC1CCC(C)NC1` (stereo partly drawn) [Example 396, 3-[(1S)-1-[7-[5-chloro-3-methyl-2-[(6-methyl-3-piperidyl)oxy]phenyl]thieno[3,2-b]pyridin-2-yl]ethyl]-6,6-dimethyl-3-azabicyclo[3.1.0]hexane-2,4-dione; 2,2,2-trifluoroacetic acid], the half-maximal inhibitory concentration (IC50) under setting [2] was less than 1 µM. Consider `Cc1cc(Cl)cc(-c2ccnc3cc(CN4C(=O)CCC4=O)sc23)c1O[C@@H]1CN[C@@H](C)C1` [Example 99, 1-((7-(5-Chloro-3-methyl-2-(((3S,5S)-5-methylpyrrolidin-3-yl)oxy)phenyl)thieno[3,2-b]pyridin-2-yl)methyl)pyrrolidine-2,5-dione], for which the IC50 under setting [2] was less than 1 µM. On the same count and under the same terms, to `Cc1cc(Cl)cc(-c2ccnc3cc(CN4C(=O)C5CCCCC5C4=O)sc23)c1O[C@@H]1CNC[C@@H]1F` (stereo partly drawn) [Example 142, 2-((7-(5-Chloro-2-(((3R,4S)-4-fluoropyrrolidin-3-yl)oxy)-3-methylphenyl)thieno[3,2-b]pyridin-2-yl)methyl)hexahydro-1H-isoindole-1,3(2H)-dione] belongs less than 1 µM. As for `CCN1C[C@H]2C[C@@H]1[C@H](Oc1c(C)cc(Cl)cc1-c1ccnc3cc(Cn4c(=O)ccn(CC(F)(F)F)c4=O)sc13)C2` [Example 619, 3-[[7-[5-chloro-2-[[(1S,4R,5R)-3-ethyl-3-azabicyclo[2.2.1]heptan-5-yl]oxy]-3-methyl-phenyl]thieno[3,2-b]pyridin-2-yl]methyl]-1-(2,2,2-trifluoroethyl)pyrimidine-2,4-dione], the 50% inhibitory concentration (IC50) under setting [3] is less than 1 µM. On to `Cc1cc(Cl)cc(-c2ncnc3cc(Cn4c(=O)ccn(C(C)C)c4=O)sc23)c1O[C@@H]1CCN(C)C[C@@H]1C` [Example 510, 3-[[4-[5-chloro-2-[[(3S,4R)-1,3-dimethyl-4-piperidyl]oxy]-3-methyl-phenyl]thieno[3,2-d]pyrimidin-6-yl]methyl]-1-isopropyl-pyrimidine-2,4-dione], for which, under setting [3], the half-maximal inhibitory concentration (IC50) is less than 1 µM. The same measure, in the same setting: to `Cc1cc(Cl)cc(-c2ccnc3cc(Cn4c(=O)ccn(C)c4=O)sc23)c1O[C@@H]1CNCC[C@@H]1F` [Example 570, 3-[[7-[5-chloro-2-[[(3R,4S)-4-fluoro-3-piperidyl]oxy]-3-methyl-phenyl]thieno[3,2-b]pyridin-2-yl]methyl]-1-methyl-pyrimidine-2,4-dione] belongs less than 1 µM; to `Cc1cc(Cl)cc(-c2ccnc3cc(CN4C(=O)CCC4=O)sc23)c1O[C@H]1CCCN(CC(=O)O)C1` [Example 579, 2-[(3S)-3-[4-chloro-2-[2-[(2,5-dioxopyrrolidin-1-yl)methyl]thieno[3,2-b]pyridin-7-yl]-6-methyl-phenoxy]-1-piperidyl]acetic acid], less than 1 µM.

`Cc1cc(Cl)cc(-c2ccnc3cc(CN4C(=O)CCC4=O)sc23)c1OC1CNC(C)(C)C1` (centres unmarked) [Example 130, 1-((7-(5-Chloro-2-((5,5-dimethylpyrrolidin-3-yl)oxy)-3-methylphenyl)thieno[3,2-b]pyridin-2-yl)methyl)pyrrolidine-2,5-dione]: the half-inhibitory concentration (IC50) under setting [2] was less than 1 µM.

Consider `Cc1cc(Cl)cc(-c2ccnc3cc(Cn4c(=O)[nH]cc(C(F)(F)F)c4=O)sc23)c1O[C@H]1CCCNC1` [Example 571, 3-[[7-[5-chloro-3-methyl-2-[[(3S)-3-piperidyl]oxy]phenyl]thieno[3,2-b]pyridin-2-yl]methyl]-5-(trifluoromethyl)-1H-pyrimidine-2,4-dione], for which the IC50 under setting [3] is less than 1 µM.

In the case of `Cc1cc(Cl)cc(-c2ccnc3cc(Cn4c(=O)ccn(CC(F)(F)F)c4=O)sc23)c1OC1CNC[C@@]1(C)F` (stereo partly drawn) [Example 406, 3-[[7-[5-chloro-2-[(4R)-4-fluoro-4-methyl-pyrrolidin-3-yl]oxy-3-methyl-phenyl]thieno[3,2-b]pyridin-2-yl]methyl]-1-(2,2,2-trifluoroethyl)pyrimidine-2,4-dione; 2,2,2-trifluoroacetic acid], the 50% inhibitory concentration (IC50) under setting [3] is less than 1 µM.

As for `N#Cc1cc(-c2ccnc3cc(CN4C(=O)CCC4=O)sc23)c(O[C@@H]2CNC[C@@H]2F)cc1F` [Example 135, 5-(2-((2,5-Dioxopyrrolidin-1-yl)methyl)thieno[3,2-b]pyridin-7-yl)-2-fluoro-4-(((3R,4S)-4-fluoropyrrolidin-3-yl)oxy)benzonitrile], the concentration for half-maximal inhibition (IC50) under setting [2] fell in the range of 1 to 10 µM. `Cc1cc(Cl)cc(-c2ncnc3cc(CN4C(=O)C5C(C4=O)C5(C)C)sc23)c1OC1CCNC1(C)C` (centres unmarked) [Example 370, 3-[[4-[5-chloro-2-(2,2-dimethylpyrrolidin-3-yl)oxy-3-methyl-phenyl]thieno[3,2-d]pyrimidin-6-yl]methyl]-6,6-dimethyl-3-azabicyclo[3.1.0]hexane-2,4-dione]: the half-inhibitory concentration (IC50) under setting [2] is less than 1 µM. On the same count and under the same terms, to `CCC(O)c1cc2ncnc(-c3cc(Cl)cc(C)c3OC3CCNCC3)c2s1` (centres unmarked) [Example 181, 1-(4-(5-Chloro-3-methyl-2-(piperidin-4-yloxy)phenyl)thieno[3,2-d]pyrimidin-6-yl)propan-1-ol] belongs 1 to 10 µM. For `CCN(CC)C(=O)CN1CC[C@@H](Oc2c(C)cc(Cl)cc2-c2ccnc3cc(Cn4c(=O)ccn(CC(F)(F)F)c4=O)sc23)[C@@H](C)C1` [Example 692, 2-[(3S,4R)-4-[4-chloro-2-[2-[[2,6-dioxo-3-(2,2,2-trifluoroethyl)pyrimidin-1-yl]methyl]thieno[3,2-b]pyridin-7-yl]-6-methyl-phenoxy]-3-methyl-1-piperidyl]-N,N-diethyl-acetamide], under setting [1], the IC50 was less than 1 µM.

For `COC[C@H]1C[C@H](Oc2c(C)cc(Cl)cc2-c2ccnc3cc(Cn4c(=O)ccn(CC(F)(F)F)c4=O)sc23)CN1` [Example 650, 3-[[7-[5-chloro-2-[(3S,5R)-5-(methoxymethyl)pyrrolidin-3-yl]oxy-3-methyl-phenyl]thieno[3,2-b]pyridin-2-yl]methyl]-1-(2,2,2-trifluoroethyl)pyrimidine-2,4-dione], under setting [3], the IC50 is less than 1 µM. Regarding `CCN1CC(Oc2c(C)cc(Cl)cc2-c2ccnc3cc(CN4C(=O)C5C(C4=O)C5(C)C)sc23)C(C)(F)C1` (centres unmarked) [Example 374, 3-[[7-[5-chloro-2-(1-ethyl-4-fluoro-4-methyl-pyrrolidin-3-yl)oxy-3-methyl-phenyl]thieno[3,2-b]pyridin-2-yl]methyl]-6,6-dimethyl-3-azabicyclo[3.1.0]hexane-2,4-dione dihydrochloride], the IC50 under setting [2] was less than 1 µM.

For `Cc1cc(Cl)cc(-c2ccnc3cc(CN4C(=O)CCC4=O)sc23)c1O[C@H]1CNCC[C@@H]1F` [Example 425, 1-[[7-[5-chloro-2-[[(3S,4S)-4-fluoro-3-piperidyl]oxy]-3-methyl-phenyl]thieno[3,2-b]pyridin-2-yl]methyl]pyrrolidine-2,5-dione], under setting [3], the IC50 is less than 1 µM. Same read-out and setting: the figure for `Cc1cc(Cl)cc(-c2ccnc(CCCN3C(=O)CCC3=O)c2)c1OC1CCNCC1` [Example 410, 1-[3-[4-[5-chloro-3-methyl-2-(4-piperidyloxy)phenyl]-2-pyridyl]propyl]pyrrolidine-2,5-dione; 2,2,2-trifluoroacetic acid] is 1 to 10 µM.

In the case of `OCc1cc2nccc(-c3cc(Cl)cc(Br)c3O[C@H]3CCCNC3)c2s1` [Example 166, (S)-(7-(3-Bromo-5-chloro-2-(piperidin-3-yloxy)phenyl)thieno[3,2-b]pyridin-2-yl)methanol], the 50% inhibitory concentration (IC50) under setting [2] was 1 to 10 µM. Same read-out and setting: the figure for `Cc1cc(Cl)cc(-c2ccnc3cc(CN4C(=O)C5CC5C4=O)sc23)c1O[C@@H]1CCN(C)C[C@@H]1C` (stereo partly drawn) [Example 326, 3-[[7-[5-chloro-2-[[(3S,4R)-1,3-dimethyl-4-piperidyl]oxy]-3-methyl-phenyl]thieno[3,2-b]pyridin-2-yl]methyl]-3-azabicyclo[3.1.0]hexane-2,4-dione] is less than 1 µM; for `Cc1cc(Cl)cc(-c2ccnc3cc(CN4C(=O)CCC4=O)sc23)c1O[C@@H]1CNC(C(=O)N(C)C)C1` (stereo partly drawn) [Example 64, (4S)-4-(4-Chloro-2-(2-((2,5-dioxopyrrolidin-1-yl)methyl)thieno[3,2-b]pyridin-7-yl)-6-methylphenoxy)-N,N-dimethylpyrrolidine-2-carboxamide] it is 1 to 10 µM. As to `Cc1cc(Cl)cc(-c2ccnc3cc(Cn4c(=O)ccn(C)c4=O)sc23)c1OC(C)CN` (centres unmarked) [Example 553, 3-[[7-[2-(2-amino-1-methyl-ethoxy)-5-chloro-3-methyl-phenyl]thieno[3,2-b]pyridin-2-yl]methyl]-1-methyl-pyrimidine-2,4-dione; 2,2,2-trifluoroacetic acid], the IC50 under setting [3] is less than 1 µM. Still for that read-out and setting: the figure for `Cc1cc(Cl)cc(-c2ccnc3cc(Cn4c(=O)ccn(C)c4=O)sc23)c1OC1CC(N2CCOCC2)C1` (centres unmarked) [Example 516] is less than 1 µM. Take `Cc1cc(Cl)cc(-c2ccnc3cc(Cn4c(=O)cc[nH]c4=O)sc23)c1OC1CCNCC1` [Example 184, 3-((7-(5-Chloro-3-methyl-2-(piperidin-4-yloxy)phenyl)thieno[3,2-b]pyridin-2-yl)methyl)pyrimidine-2,4(1H,3H)-dione]: the IC50 under setting [2] is less than 1 µM.
